Results reported in the supplement of paper PMC10307832.

Columns and labels:
Assay in all cases: relative viability (nuclei count vs DMSO), 5 days (fraction); higher = more cells survive
KIN001-266 + Navitoclax = compound: CCN1CCC(CC1)N2C=C(N=N2)CNC3=CC4=C(C(=CN=C4C(=C3)Cl)C#N)NC5=CC(=C(C=C5)F)Cl [KIN001-266] + CC1(C)CCC(c2ccc(Cl)cc2)=C(CN2CCN(c3ccc(C(=O)NS(=O)(=O)c4ccc(N[C@H](CCN5CCOCC5)CSc5ccccc5)c(S(=O)(=O)C(F)(F)F)c4)cc3)CC2)C1 [Navitoclax] (partner 0.5 µM)
Method in brief: (§1)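 One day after seeding in 1536-well plates, lung cancer cell lines were dosed by pin tool. Dosing was either single-drug or a fixed anchor-drug dose plus five library-drug doses (not always all listed) in √10 steps. After 5 days, nuclei were stained in one fix-and-stain step and counted on 4× images, and relative viability is the nuclei count of treated wells over that of vehicle wells, given as the median of duplicate plates.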

KIN001-266 + Vorinostat = compound: CCN1CCC(CC1)N2C=C(N=N2)CNC3=CC4=C(C(=CN=C4C(=C3)Cl)C#N)NC5=CC(=C(C=C5)F)Cl [KIN001-266] + O=C(CCCCCCC(=O)Nc1ccccc1)NO [Vorinostat] (partner 1 µM)
Method in brief: as §1

KIN001-266 + Linsitinib = compound: CCN1CCC(CC1)N2C=C(N=N2)CNC3=CC4=C(C(=CN=C4C(=C3)Cl)C#N)NC5=CC(=C(C=C5)F)Cl [KIN001-266] + C[C@]1(O)C[C@@H](c2nc(-c3ccc4ccc(-c5ccccc5)nc4c3)c3c(N)nccn32)C1 [Linsitinib] (partner 1 µM)
Method in brief: as §1

KIN001-266 + Alpelisib = compound: CCN1CCC(CC1)N2C=C(N=N2)CNC3=CC4=C(C(=CN=C4C(=C3)Cl)C#N)NC5=CC(=C(C=C5)F)Cl [KIN001-266] + Cc1nc(NC(=O)N2CCC[C@H]2C(N)=O)sc1-c1ccnc(C(C)(C)C(F)(F)F)c1 [Alpelisib] (partner 2 µM)
Method in brief: as §1

PC-14 was tested, and the relative viability (KIN001-266 + Navitoclax; first compound 0.08 µM) was 0.973, the relative viability (KIN001-266 + Navitoclax; first compound 0.253 µM) was 1.03 and the relative viability (KIN001-266 + Navitoclax; first compound 0.8 µM) was 1.07. For the same cell line, the relative viability (KIN001-266 + Navitoclax; first compound 2.53 µM) was 0.959, the relative viability (KIN001-266 + Navitoclax; first compound 8 µM) was 0.599 and the relative viability (KIN001-266 + Vorinostat; first compound 0.08 µM) was 0.627. It also gave a relative viability (KIN001-266 + Vorinostat; first compound 0.253 µM) of 0.803, a relative viability (KIN001-266 + Vorinostat; first compound 0.8 µM) of 0.158 and a relative viability (KIN001-266 + Vorinostat; first compound 2.53 µM) of 0.577. It also gave a relative viability (KIN001-266 + Vorinostat; first compound 8 µM) of 0.0881, a relative viability (KIN001-266 + Linsitinib; first compound 0.08 µM) of 0.953 and a relative viability (KIN001-266 + Linsitinib; first compound 0.253 µM) of 1.06. For the same cell line, the relative viability (KIN001-266 + Linsitinib; first compound 0.8 µM) was 1.01, the relative viability (KIN001-266 + Linsitinib; first compound 2.53 µM) was 0.97 and the relative viability (KIN001-266 + Linsitinib; first compound 8 µM) was 0.442. For the same cell line, the relative viability (KIN001-266 + Alpelisib; first compound 0.08 µM) was 0.927, the relative viability (KIN001-266 + Alpelisib; first compound 0.253 µM) was 0.923 and the relative viability (KIN001-266 + Alpelisib; first compound 0.8 µM) was 0.918. The relative viability (KIN001-266 + Alpelisib; first compound 2.53 µM) was 0.906 and the relative viability (KIN001-266 + Alpelisib; first compound 8 µM) was 0.663.

SK-MES-1 was tested, and the relative viability (KIN001-266 + Navitoclax; first compound 0.08 µM) was 1.25, the relative viability (KIN001-266 + Navitoclax; first compound 0.253 µM) was 1.17 and the relative viability (KIN001-266 + Navitoclax; first compound 0.8 µM) was 1.11. It also gave a relative viability (KIN001-266 + Navitoclax; first compound 2.53 µM) of 1.04, a relative viability (KIN001-266 + Navitoclax; first compound 8 µM) of 0.858 and a relative viability (KIN001-266 + Vorinostat; first compound 0.08 µM) of 1.1. For the same cell line, the relative viability (KIN001-266 + Vorinostat; first compound 0.253 µM) was 1.19, the relative viability (KIN001-266 + Vorinostat; first compound 0.8 µM) was 1.03 and the relative viability (KIN001-266 + Vorinostat; first compound 2.53 µM) was 1.03. It also gave a relative viability (KIN001-266 + Vorinostat; first compound 8 µM) of 0.713, a relative viability (KIN001-266 + Linsitinib; first compound 0.08 µM) of 1.17 and a relative viability (KIN001-266 + Linsitinib; first compound 0.253 µM) of 1.08. For the same cell line, the relative viability (KIN001-266 + Linsitinib; first compound 0.8 µM) was 1.01, the relative viability (KIN001-266 + Linsitinib; first compound 2.53 µM) was 1 and the relative viability (KIN001-266 + Linsitinib; first compound 8 µM) was 0.902. For the same cell line, the relative viability (KIN001-266 + Alpelisib; first compound 0.08 µM) was 0.943, the relative viability (KIN001-266 + Alpelisib; first compound 0.253 µM) was 0.813 and the relative viability (KIN001-266 + Alpelisib; first compound 0.8 µM) was 0.845. For the same cell line, the relative viability (KIN001-266 + Alpelisib; first compound 2.53 µM) was 0.872 and the relative viability (KIN001-266 + Alpelisib; first compound 8 µM) was 0.76.

In the case of NCI-H727, the relative viability (KIN001-266 + Navitoclax; first compound 0.08 µM) was 0.337, the relative viability (KIN001-266 + Navitoclax; first compound 0.253 µM) was 0.557 and the relative viability (KIN001-266 + Navitoclax; first compound 0.8 µM) was 0.484. For the same cell line, the relative viability (KIN001-266 + Navitoclax; first compound 2.53 µM) was 0.577, the relative viability (KIN001-266 + Navitoclax; first compound 8 µM) was 0.183 and the relative viability (KIN001-266 + Vorinostat; first compound 0.08 µM) was 1.13. It also gave a relative viability (KIN001-266 + Vorinostat; first compound 0.253 µM) of 1.29, a relative viability (KIN001-266 + Vorinostat; first compound 0.8 µM) of 1.31 and a relative viability (KIN001-266 + Vorinostat; first compound 2.53 µM) of 1.08. It also gave a relative viability (KIN001-266 + Vorinostat; first compound 8 µM) of 1.14, a relative viability (KIN001-266 + Linsitinib; first compound 0.08 µM) of 0.296 and a relative viability (KIN001-266 + Linsitinib; first compound 0.253 µM) of 0.283. It also gave a relative viability (KIN001-266 + Linsitinib; first compound 0.8 µM) of 0.237, a relative viability (KIN001-266 + Linsitinib; first compound 2.53 µM) of 0.284 and a relative viability (KIN001-266 + Linsitinib; first compound 8 µM) of 0.333. It also gave a relative viability (KIN001-266 + Alpelisib; first compound 0.08 µM) of 0.585, a relative viability (KIN001-266 + Alpelisib; first compound 0.253 µM) of 0.567 and a relative viability (KIN001-266 + Alpelisib; first compound 0.8 µM) of 0.622. It also gave a relative viability (KIN001-266 + Alpelisib; first compound 2.53 µM) of 0.597 and a relative viability (KIN001-266 + Alpelisib; first compound 8 µM) of 0.329.

Cell Line NCI-H1355 has a relative viability (KIN001-266 + Navitoclax; first compound 0.08 µM) of 0.981, a relative viability (KIN001-266 + Navitoclax; first compound 0.253 µM) of 0.955 and a relative viability (KIN001-266 + Navitoclax; first compound 0.8 µM) of 0.963. The relative viability (KIN001-266 + Navitoclax; first compound 2.53 µM) was 0.873, the relative viability (KIN001-266 + Navitoclax; first compound 8 µM) was 0.812 and the relative viability (KIN001-266 + Vorinostat; first compound 0.08 µM) was 0.615. For the same cell line, the relative viability (KIN001-266 + Vorinostat; first compound 0.253 µM) was 0.65, the relative viability (KIN001-266 + Vorinostat; first compound 0.8 µM) was 0.636 and the relative viability (KIN001-266 + Vorinostat; first compound 2.53 µM) was 0.631. For the same cell line, the relative viability (KIN001-266 + Vorinostat; first compound 8 µM) was 0.62, the relative viability (KIN001-266 + Linsitinib; first compound 0.08 µM) was 0.814 and the relative viability (KIN001-266 + Linsitinib; first compound 0.253 µM) was 0.803. The relative viability (KIN001-266 + Linsitinib; first compound 0.8 µM) was 0.905, the relative viability (KIN001-266 + Linsitinib; first compound 2.53 µM) was 0.779 and the relative viability (KIN001-266 + Linsitinib; first compound 8 µM) was 0.742. It also gave a relative viability (KIN001-266 + Alpelisib; first compound 0.08 µM) of 0.854, a relative viability (KIN001-266 + Alpelisib; first compound 0.253 µM) of 0.783 and a relative viability (KIN001-266 + Alpelisib; first compound 0.8 µM) of 0.912. The relative viability (KIN001-266 + Alpelisib; first compound 2.53 µM) was 0.737 and the relative viability (KIN001-266 + Alpelisib; first compound 8 µM) was 0.764.
